The values that follow are results of earlier work, collected in patent publication US8008021B2, “N-terminal truncation of cardiac troponin subunits and their roles in cardiovascular disease” (Evanston Northwestern Healthcare, priority 2006, dated 2011).

In this data set the target is T1, m-calpain (Homo sapiens, UniProt P17655).
T1 sequence (P17655 1-700): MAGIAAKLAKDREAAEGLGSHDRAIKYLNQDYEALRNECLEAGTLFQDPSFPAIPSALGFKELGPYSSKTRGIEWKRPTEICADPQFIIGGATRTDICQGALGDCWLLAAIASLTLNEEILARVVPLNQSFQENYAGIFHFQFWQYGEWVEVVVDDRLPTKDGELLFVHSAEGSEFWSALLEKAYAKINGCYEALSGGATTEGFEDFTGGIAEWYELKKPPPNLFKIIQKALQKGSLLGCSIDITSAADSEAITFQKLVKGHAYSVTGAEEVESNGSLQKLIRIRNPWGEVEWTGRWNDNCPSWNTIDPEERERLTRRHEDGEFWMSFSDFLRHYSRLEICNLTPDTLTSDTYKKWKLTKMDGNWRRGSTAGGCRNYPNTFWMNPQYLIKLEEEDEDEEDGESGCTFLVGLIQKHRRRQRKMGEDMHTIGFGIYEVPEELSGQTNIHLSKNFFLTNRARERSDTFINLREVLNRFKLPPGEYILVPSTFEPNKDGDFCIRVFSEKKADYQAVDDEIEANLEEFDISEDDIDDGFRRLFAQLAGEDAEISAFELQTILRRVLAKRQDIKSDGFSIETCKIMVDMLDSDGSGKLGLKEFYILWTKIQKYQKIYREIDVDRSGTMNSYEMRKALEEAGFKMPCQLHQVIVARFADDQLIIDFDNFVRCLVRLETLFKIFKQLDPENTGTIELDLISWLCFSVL
T1 sequence (P04632 1-268 partner): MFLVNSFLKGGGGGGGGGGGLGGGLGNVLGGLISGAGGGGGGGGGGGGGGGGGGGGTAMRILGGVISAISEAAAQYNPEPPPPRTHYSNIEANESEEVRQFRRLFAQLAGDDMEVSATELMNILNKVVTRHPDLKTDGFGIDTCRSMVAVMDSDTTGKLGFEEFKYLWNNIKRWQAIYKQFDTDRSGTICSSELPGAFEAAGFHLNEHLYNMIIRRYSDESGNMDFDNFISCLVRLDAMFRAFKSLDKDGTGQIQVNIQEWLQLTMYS
To be noted: reference 43; read-out: apparent inhibition constant Ki against m-calpain; cited from earlier work.

On to `O=C(O)/C(S)=C/c1c[nH]c2ccc(F)cc12` [PD151746], for which the Ki was 5330 ± 770 nM.

Regarding `O=C(O)/C(S)=C/c1ccc(I)cc1` [PD150606], the Ki was 370 ± 30 nM.
